The text below walks through data of DBAASP.

Common to all, as to test: ≥ marks a high value that may be exact or a test limit, other limits are often not marked, values filed in µg/mL are converted to µM
Assay [1] relates to Bacillus subtilis CICC 24434.
In assay [2] the test system is Listeria monocytogenes CICC 21533.
Assay [3] deals with Salmonella enterica subsp. enterica serovar Choleraesuis C78-1.
Assay [4] has as its system Pasteurella multocida C48-3.
The test system of assay [5] is Escherichia coli E44813.
Assay [6] deals with Staphylococcus epidermidis LY8.
In assay [7] the test system is Salmonella typhimurium SL1344.
Assay [8] concerns Staphylococcus aureus ATCC 25923.
Assay [9] concerns Shigella flexneri CICC 21534.
The test system of assay [10] is Staphylococcus aureus ATCC 12600.
Assay [11] relates to Enterococcus faecalis ATCC 51299.
Assay [12] has as its system Salmonella enterica subsp. enterica serovar Typhimurium ATCC 14028.
In assay [13] the test system is Escherichia coli ATCC 35218.
Assay [14] has as its system Staphylococcus aureus ATCC BAA-2312.
In assay [15] the test system is Klebsiella pneumoniae ATCC 49472.
For assay [16], the system named is Klebsiella pneumoniae ATCC BAA-2814.
Assay [17] concerns Acinetobacter baumannii AB1MG.
Assay [18] concerns Providencia stuartii W03FI0001.
Assay [19] concerns Pseudomonas aeruginosa 891.
Assay [20] deals with Klebsiella oxytoca W99FI00049.
Assay [21] has as its system Escherichia coli.
The subject of assay [22] is Serratia marcescens W99FI0111.
Assay [23] relates to Escherichia coli ATCC 25922.
For assay [24], the system named is Proteus mirabilis W99FI0089.
Assay [25] concerns Staphylococcus aureus ATCC 29213.
Assay [26] relates to Enterobacter cloacae W03AN0041.
For assay [27], the system named is Klebsiella pneumoniae.
The subject of assay [28] is Elizabethkingia meningoseptica CCUG 4310.
Assay [29] concerns Pseudomonas aeruginosa VA463/98.
Assay [30] concerns Staphylococcus aureus MIU-68A.
In assay [31] the test system is Citrobacter freundii W99FI00007.
For assay [32], the system named is Pseudomonas aeruginosa 885149.
The subject of assay [33] is Burkholderia cepacia SMC 71.
Assay [34] concerns Stenotrophomonas maltophilia PT4/99.
Assay [35] relates to Morganella morganii W03VA1342.
For assay [36], the system named is Proteus mirabilis W03VA1144.
Assay [37] deals with Acinetobacter baumannii AB7MG.
The subject of assay [38] is Pseudomonas aeruginosa ATCC 27853.
Assay [39] relates to Klebsiella aerogenes W03BG0067.
In assay [40] the test system is Acinetobacter baumannii BCRC 14B0100.
The subject of assay [41] is Shigella dysenteriae ATCC 51302.
Assay [42] concerns Salmonella typhimurium ATCC 50013.
Assay [43] deals with Streptococcus pneumoniae ATCC 49619.
The test system of assay [44] is Bacillus subtilis ATCC 9372.

≈ marks a conversion by molar mass, not a printed value. Where “and” joins values, the source holds several entries; their conditions need not be identical. Equal entries are not always repeated.

As to `CC[C@H](C)[C@H](NC(=O)[C@@H](NC(=O)[C@H](Cc1ccccc1)NC(=O)[C@H](CCCCN)NC(=O)[C@@H]1CCCN1C(=O)[C@H](CCCCN)NC(=O)[C@H](CCC(N)=O)NC(=O)[C@@H]1CCCN1C(=O)[C@H](CCCN=C(N)N)NC(=O)[C@H](CCCN=C(N)N)NC(=O)[C@@H](NC(=O)[C@H](CCCN=C(N)N)NC(=O)[C@H](Cc1c[nH]c2ccccc12)NC(=O)[C@H](CC(C)C)NC(=O)[C@H](CCCN=C(N)N)NC(=O)[C@H](CC(=O)O)NC(=O)[C@@H](NC(=O)[C@@H](NC(=O)[C@@H](N)CCCN=C(N)N)[C@@H](C)CC)[C@@H](C)CC)C(C)C)C(C)C)C(=O)N[C@H](C(=O)N[C@@H](Cc1c[nH]c2ccccc12)C(=O)N[C@H](C(=O)N[C@@H](CCCN=C(N)N)C(=O)O)C(C)C)C(C)C` [RIIDRLWRVRRPQKPKFVIVWVR], the MIC – broadly, the lowest concentration that inhibits growth of the organism – amounted to 0.259 µM (≈ 0.78 µg/mL) in assay [1]; 20.7 µM (≈ 62.5 µg/mL) in assay [2]; 0.129 µM (≈ 0.39 µg/mL) in [3]; 0.259 µM (≈ 0.78 µg/mL) in [4]; 2.07 µM (≈ 6.25 µg/mL) in [5]; 4.14 µM (≈ 12.5 µg/mL) in [6]. Moreover, the MIC was 0.259 µM (≈ 0.78 µg/mL) in [7], 0.0041 µM (≈ 0.0124 µg/mL) in assay [8] and 24.9 µM (≈ 75 µg/mL) in assay [9].

Turning to `CC[C@H](C)[C@H](NC(=O)[C@H](CCC(N)=O)NC(=O)[C@H](CO)NC(=O)[C@H](C)NC(=O)[C@H](CC(C)C)NC(=O)[C@H](Cc1cnc[nH]1)NC(=O)[C@@H](NC(=O)[C@H](CC(C)C)NC(=O)[C@H](CC(C)C)NC(=O)CNC(=O)[C@H](CCCCN)NC(=O)CNC(=O)[C@H](C)NC(=O)CNC(=O)[C@H](CCCCN)NC(=O)[C@H](CC(C)C)NC(=O)[C@H](CC(C)C)NC(=O)[C@H](CC(=O)O)NC(=O)[C@H](CC(C)C)NC(=O)[C@H](CC(C)C)NC(=O)CN)[C@@H](C)O)C(N)=O` [GLLDLLKGAGKGLLTHLASQI], the MIC in assay [10] was no less than 250 µM; in assay [11], no less than 250 µM; in assay [12], 250 µM (≈ 529 µg/mL); in [13], no less than 62.5 µM; in assay [14], no less than 250 µM; in assay [15] it was no less than 125 µM. The compound also displayed a minimal inhibitory concentration (MIC) in assay [16] of no less than 125 µM.

Turning to `CC[C@H](C)[C@H](NC(=O)[C@H](CCCCN)NC(=O)[C@H](CCCCN)NC(=O)[C@@H](N)CCC(N)=O)C(=O)N[C@@H](CCCN=C(N)N)C(=O)N[C@H](C(=O)N[C@@H](CCCN=C(N)N)C(=O)N[C@@H](CC(C)C)C(=O)N[C@@H](CO)C(=O)N[C@@H](C)C(=O)O)C(C)C` [QKKIRVRLSA], the MIC in [17] was 13.4 µM (≈ 16 µg/mL); in [18] it was no less than 107 µM; in [19], 6.68 µM (≈ 8 µg/mL); in assay [20] it was no less than 53.4 µM; in assay [21] it was 6.68 µM (≈ 8 µg/mL); in assay [22] it was no less than 107 µM. Moreover, the minimum inhibitory concentration (MIC) is 3.34 µM (≈ 4 µg/mL) in assay [23]; no less than 107 µM in [24]; greater than 53.4 µM in assay [25]; 3.34 µM (≈ 4 µg/mL) in [26]; 6.68 µM (≈ 8 µg/mL) in assay [27]; no less than 107 µM in [28]. Moreover, the MIC is 3.34 µM (≈ 4 µg/mL) in [29]; no less than 107 µM in [30]; 13.4 µM (≈ 16 µg/mL) in assay [31]; 6.68 µM (≈ 8 µg/mL) in assay [32]; no less than 53.4 µM in assay [33]; no less than 107 µM in [34]. Moreover, the MIC in assay [35] is no less than 107 µM; in [8], greater than 107 µM; in assay [36], no less than 53.4 µM; in assay [37] it was 26.7 µM (≈ 32 µg/mL); in assay [38] it was 3.34 µM (≈ 4 µg/mL); in assay [39], 6.68 µM (≈ 8 µg/mL).

In the case of `CC[C@H](C)[C@H](NC(=O)[C@H](CCCN=C(N)N)NC(=O)[C@H](CCC(N)=O)NC(=O)[C@@H](NC(=O)[C@@H](NC(=O)[C@H](CCCN=C(N)N)NC(=O)[C@H](CCCCN)NC(C)=O)[C@@H](C)CC)C(C)C)C(=O)N[C@@H](CCCCN)C(=O)N[C@@H](CC(=O)O)C(=O)N[C@@H](Cc1ccccc1)C(=O)N[C@@H](CC(C)C)C(=O)N[C@@H](CCCN=C(N)N)C(=O)N[C@@H](C)C(=O)NCC(=O)N1CCC[C@H]1C(=O)N[C@@H](CCCN=C(N)N)C(=O)N[C@@H](CCCN=C(N)N)C(=O)N[C@@H](Cc1c[nH]c2ccccc12)C(=O)N[C@@H](Cc1c[nH]c2ccccc12)C(=O)N[C@@H](CCCN=C(N)N)C(=O)N[C@@H](Cc1c[nH]c2ccccc12)C(N)=O` [KRIVQRIKDFLRAGPRRWWRW], the MIC was 1.42 µM and 0.708 µM in assay [23]; 1.42 µM and 0.708 µM in [8]; 0.708 µM and 1.42 µM in assay [40]; 0.708 µM and 1.42 µM in [38].

For `CC(C)C[C@H](NC(=O)[C@@H](NC(=O)CNC(=O)[C@H](C)NC(=O)[C@H](CC(C)C)NC(=O)[C@H](CS)NC(=O)[C@H](CCCN=C(N)N)NC(=O)[C@H](C)NC(=O)[C@H](CC(C)C)NC(=O)CN)[C@@H](C)O)C(=O)O` [GLARCLAGTL], the minimum inhibitory concentration (MIC) was found to be 16.4 µM (≈ 16 µg/mL) in [41]; 8.21 µM (≈ 8 µg/mL) in assay [23]; 16.4 µM (≈ 16 µg/mL) in assay [42]; 16.4 µM (≈ 16 µg/mL) in assay [43]; 65.7 µM (≈ 64 µg/mL) in assay [8]; 8.21 µM (≈ 8 µg/mL) in [38]. The MIC in [44] came out at 8.21 µM (≈ 8 µg/mL).
